From US20210138025A1, “CATIONIC PEPTIDES WITH IMMUNOMODULATORY AND/OR ANTI-BIOFILM ACTIVITIES” (priority 2018, published 2021)
No end group written: not given here.

How the values were obtained:
[1] = tested on: PBMCs; assay: Cytotoxicity towards PBMCs, lactate dehydrogenase (LDH) release assay (Tables 6, 7); details: SPOT synthesized peptide ~25 μM, PBMCs from 3 human donors; Table 6
[2] = tested on: E. coli (Ec); format: cell-based; details: Ec
[3] = tested on: planktonic methicillin resistant S. aureus; assay: microbe, parasite or virus in culture; format: cell-based, Staphylococcus aureus
[4] = tested on: S. aureus (Sau); format: cell-based; details: Sau
Procedure: (§1) The same strains as in Table 18 were assessed for Minimal Biofilm Inhibitory Concentrations (MBIC) (Table 19). Italics=excellent activity (less than or equal to 4 μg/ml). ND=Not determined. Peptides 3013, 3015 and 3016 inhibited biofilm growth in the largest number of bacterial strains (5, 5 and 6 out of 13 strains, respectively).
(§2) In addition, several peptides expressed preferential activity vs. biofilms (MBIC) cf. planktonic cells (MIC) (Table 20).

[5] = tested on: E. coli (Ec); format: cell-based; details: Ec; remark: listed apart in the source
Procedure: as §1, §2

[6] = tested on: S. aureus (Sau); format: cell-based; details: Sau; remark: listed apart in the source
[7] = tested on: MCP-1; assay: MCP-1 chemokine induction in human PBMCs, ELISA (Tables 6, 7; FIGS. 6-9, 13); format: cell-based; details: SPOT synthesized control peptides, determined as in Table 6; Table 7
Procedure: Venous blood (20 ml) from healthy volunteers was collected in Vacutainer® collection tubes containing sodium heparin as an anticoagulant (Becton Dickinson, Mississauga, ON) in accordance with UBC ethical approval and guidelines. Blood was diluted 1:1 with complete RPMI 1640 medium and separated by centrifugation over a Ficoll-Paque® Plus (Amersham Biosciences, Piscataway, N.J., USA) density gradient. White blood cells were isolated from the buffy coat, washed twice in PBS and then resuspended in RPMI 1640 complete medium (containing 10% fetal bovine serum), and the number of peripheral blood mononuclear cells (PBMC) was determined by Trypan blue exclusion. PBMCs (5×10^5) were seeded into 12-well tissue culture dishes (Falcon; Becton Dickinson) at 0.75-1×10^6 cells/ml at 37° C. in 5% CO2. The above conditions were chosen to mimic conditions for circulating blood monocytes entering tissues at the site of infection via extravasation.
Following incubation of the cells under various treatment regimens, the tissue culture supernatants were centrifuged at 1000×g for 5 min, then at 10,000×g for 2 min to obtain cell-free samples. Supernatants were aliquoted and then stored at −20° C. prior to assay for various chemokines by capture ELISA (eBioscience and BioSource International Inc., CA, USA respectively)

[8] = tested on: S. aureus (MRSA SAP0017); format: cell-based, Staphylococcus aureus; details: SPOT synthesized control peptides, determined as in Table 5; Table 7
Summary of the method: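 Static biofilm assay: 1/100 dilutions of overnight cultures grown with peptide at varying concentrations, added at time zero, in BM2 biofilm medium or tryptic soy broth plus 1% glucose in polypropylene plates. After 22-46 h, adherent biofilm stained with crystal violet and absorbance read at 595 nm.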

[9] = tested on: IL-1β; assay: Suppression of LPS-induced IL-1β production in human PBMCs, ELISA (Tables 6, 7; FIGS. 6-9, 13); details: SPOT synthesized control peptides, determined as in Table 6; Table 7
[10] = planktonic methicillin resistant

Substance | MCPI production in PBMC [7] | % Biofilm Inhibition [8] | Fold Change in IL1-β relative to untreated LPS-stimulated cells [9] | also measured
VQRIIWLRVKIV-NH2 [Peptide 3023, VQRIIWLRVKIV] | – | – | – | % Toxicity (LDH Release) [1]: −3%; MIC E. coli [2]: 2 µg/mL; MIC (μM) MHB [3, 10]: 16 µM; MIC (μM) TSB with 1% Glucose [3, 10]: >64 µM; MBIC S. aureus [4]: 2 µg/mL; MBIC E. coli [5]: 1 µg/mL; MIC S. aureus [6]: 4 µg/mL
LIVIQLLKKWWK-NH2 [Peptide 3020, LIVIQLLKKWWK] | – | – | – | % Toxicity (LDH Release) [1]: 10.2%; MIC E. coli [2]: 2 µg/mL; MIC (μM) MHB [3, 10]: 8 µM; MIC (μM) TSB with 1% Glucose [3, 10]: >64 µM; MBIC S. aureus [4]: <1 µg/mL; MBIC E. coli [5]: 1 µg/mL; MIC S. aureus [6]: 16 µg/mL
C21 (VLLRVGARIVVG) [Peptide C21] | 345 pg/mL | 99% | 0.83 | –
C42 (AIGAARAWRQWA) [Peptide C42] | 114 pg/mL | 102% | 0.85 | –
C17 (QQLRWKRVAKAI) [Peptide C17] | 1677 pg/mL | 100% | 1.05 | –
C23 (LKKIIVQAVGLI) [Peptide C23] | 653 pg/mL | 97% | 0.95 | –
C56 (IIKWIVVRQIRK) [Peptide C56] | 57 pg/mL | 102% | 0.85 | –
IKIIWKALGQVI-NH2 [Peptide 3024, IKIIWKALGQVI] | – | – | – | % Toxicity (LDH Release) [1]: −1.7%; MIC E. coli [2]: 4 µg/mL; MIC (μM) MHB ([3]; planktonic methicillin resistant S. aureus, broth microdilution in Mueller Hinton Broth (MHB), mean of three biological replicates): 16 µM; MIC (μM) TSB with 1% Glucose ([3]; planktonic methicillin resistant S. aureus, broth microdilution in Tryptic Soy Broth (TSB) supplemented with 1% glucose, mean of three biological replicates): 32 µM; MBIC S. aureus [4]: 8 µg/mL; MBIC E. coli [5]: 2 µg/mL; MIC S. aureus [6]: 16 µg/mL
C10 (QLRVAWKRAWWA) [Peptide C10] | 1313 pg/mL | 87% | 1.34 | –
C49 (WLKRIVKVVVLK) [Peptide C49] | 1557 pg/mL | 103% | 0.8 | –
C16 (KKIRQWGKAAAW) [Peptide C16] | 571 pg/mL | 100% | 0.99 | –
C24 (LKILIAQAKKGL) [Peptide C24] | 1280 pg/mL | 101% | 1.4 | –
C11 (KAVKKGRRAIVV) [Peptide C11] | 197 pg/mL | 106% | 1.12 | –
C22 (LLIAGKWWKLAI) [Peptide C22] | 153 pg/mL | 103% | 0.83 | –
C55 (VAKVKKARWRLR) [Peptide C55] | 208 pg/mL | 102% | 0.92 | –
C28 (WIIRWIKIWLKI) [Peptide C28] | 444 pg/mL | 72% | 0.88 | –
C15 (KRVQAKAWRLQR) [Peptide C15] | 297 pg/mL | 100% | 0.94 | –
C18 (IQIQLVKRWAVI) [Peptide C18] | 1768 pg/mL | 100% | 0.92 | –
C38 (RIWRRAWKARWK) [Peptide C38] | 251 pg/mL | 102% | 1.06 | –
C36 (KRIKKLLKVVLK) [Peptide C36] | 719 pg/mL | 100% | 0.92 | –
C48 (KVIKIVLVRVVK) [Peptide C48] | 1752 pg/mL | 99% | 1.07 | –
